In patent publication US20250171463A1 (BIOGEN MA INC., priority 2022, published 2025):

Molecular target: T1, EBP (Homo sapiens, UniProt Q15125)
T1 construct: HEK293T cells were utilized as the source of EBP enzyme; endogenous in cells; host or cells: HEK293T
Test: EBP Functional Assay (EBP immunoaffinity LC-MS assay)
Type: biochemical
Conditions: EBP enzyme from HEK293T cells; 30 min with inhibitor, then zymosterol-d5, 37° C., 4 h; percent conversion to dehydrolathosterol-d5 by LC-APCI MRM MS
Experimental: The EBP immunoaffinity (IA) LC-MS assay measures the potency of small molecule inhibitors of EBP by quantifying their concentration-dependent changes in the enzyme's substrate and product using liquid chromatography atmospheric pressure chemical ionization multiple reaction monitoring mass spectrometry (LC-APCI MRM MS). HEK293T cells were utilized as the source of EBP enzyme. The enzyme was incubated with the small molecule inhibitors at variable concentrations for 30 min. Deuterated form of EBP substrate, zymosterol-d5 (Avanti Polar Lipids, Cat #700068P-1 mg), was then added and the plate was incubated at 37° C. for 4 h. Finally, the sterol isomers were extracted and injected to LC-APCI MRM MS. MRM transition used for the quantification for both zymosterol and […] (substrate and product of EBP enzymatic reaction, respectively) is 372.3-203.2, CE 30 and DP 80 in positive ion mode. Percent conversion of the zymosterol-d5 to dehydrolathosterol-d5 was used to derive IC50 curves. Tasin-1 (1′-[(4-Methoxyphenyl)sulfonyl]-4-methyl-1,4′-bipiperidine, CAS 792927-06-1) was used as the reference small molecule inhibitor.
Percent conversion versus the compound concentration data were fit to the following 4-parameter logistic model to generate IC50 curves: […]

T1 sequence (Q15125 whole entry): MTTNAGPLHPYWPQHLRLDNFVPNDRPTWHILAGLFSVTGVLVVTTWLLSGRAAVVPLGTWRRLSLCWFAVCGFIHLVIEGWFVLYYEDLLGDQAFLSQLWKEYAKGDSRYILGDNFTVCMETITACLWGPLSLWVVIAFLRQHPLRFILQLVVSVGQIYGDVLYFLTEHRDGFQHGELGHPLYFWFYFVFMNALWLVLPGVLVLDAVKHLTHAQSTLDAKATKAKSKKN

IC50	SMILES
250 to 4000 nM	N#Cc1cc(C(F)(F)F)ccc1S(=O)(=O)N1CC2(CN(CC3CCOCC3)C2)C1 [Example 228, 2-((6-((tetrahydro-2H-pyran-4-yl)methyl)-2,6-diazaspiro[3.3]heptan-2-yl)sulfonyl)-5-(trifluoromethyl)benzonitrile]
< 100 nM	Cc1nc(C(F)(F)F)ccc1S(=O)(=O)N1CC2(CN(C(C)C3CCOCC3)C2)C1 (single isomer, unassigned) [Example 156]
< 100 nM	Cc1ccc(S(=O)(=O)N2CC3(C[C@H]4CC[C@@H](C3)N4CC(C)(C)O)C2)c(C)c1 [Example 62, 1-((1′R,5′S)-1-((2,4-dimethylphenyl)sulfonyl)-8′-azaspiro[azetidine-3,3′-bicyclo[3.2.1]octan]-8′-yl)-2-methylpropan-2-ol]
100 to 250 nM	Cc1cc(C(F)(F)F)nc(C)c1S(=O)(=O)N1CC2(CN(CC3COC3)C2)C1 [Example 104]
< 100 nM	Cc1nc(C(C)(C)F)ccc1S(=O)(=O)N1CC2(CN(C3CC4(COC4)C3)C2)C1 [Example 92, 2-((6-(2-fluoropropan-2-yl)-2-methylpyridin-3-yl)sulfonyl)-6-(2-oxaspiro[3.3]heptan-6-yl)-2,6-diazaspiro[3.3]heptane]
250 to 4000 nM	O=S(=O)(c1ccc(F)cc1F)N1CCOC2(CCN(C3CCOCC3)C2)C1 (stereo not shown) [Example 12, 9-((2,4-Difluorophenyl)sulfonyl)-2-(tetrahydro-2H-pyran-4-yl)-6-oxa-2,9-diazaspiro[4.5]decane]
100 to 250 nM	Cn1nc(C(F)(F)F)cc1S(=O)(=O)N1CC2(CN(CC3CCOC(C)(C)C3)C2)C1 (single isomer, unassigned) [Example 199]
100 to 250 nM	Cc1nc(C(F)(F)F)ccc1S(=O)(=O)N1CC2(CN(CC34COC(C)(C3)C4)C2)C1 [Example 73, 2-((1-methyl-2-oxabicyclo[2.1.1]hexan-4-yl)methyl)-6-((2-methyl-6-(trifluoromethyl)pyridin-3-yl)sulfonyl)-2,6-diazaspiro[3.3]heptane]
250 to 4000 nM	O=S(=O)(c1ccc(OC(F)(F)F)cc1F)N1CC2(CN(CC3CCOCC3)C2)C1 [Example 220, 2-((2-fluoro-4-(trifluoromethoxy)phenyl)sulfonyl)-6-((tetrahydro-2H-pyran-4-yl)methyl)-2,6-diazaspiro[3.3]heptane]
100 to 250 nM	O=S(=O)(c1cc(F)cc(F)c1)N1CCO[C@@]2(CCN(C3CCOCC3)C2)C1 (single isomer, unassigned) [Example 15]
250 to 4000 nM	O=S(=O)(c1ccc(OC(F)F)cc1)N1CCOC2(CCN(C3CCOC3)CC2)C1 (racemic) [Example 6, 4-((4-(Difluoromethoxy)phenyl)sulfonyl)-9-(tetrahydrofuran-3-yl)-1-oxa-4,9-diazaspiro[5.5]undecane]
100 to 250 nM	Cc1nc(C(F)(F)F)ccc1S(=O)(=O)N1CC2(CN(C(C)C3(C)COC3)C2)C1 (stereo not shown) [Example 132]
100 to 250 nM	Cc1cc(C(F)(F)F)ncc1S(=O)(=O)N1CC2(CN(C3CCOCC3)C2)C1 [Example 48]
250 to 4000 nM	Cc1nc(C(C)(F)F)ccc1S(=O)(=O)N1CC2(CN(C3CCOC3)C2)C1 (stereo not shown) [Example 84]
100 to 250 nM	COC(C)(C)CN1CC2(C[C@H]3CC[C@@H](C2)N3S(=O)(=O)c2ccc(OC(F)F)cc2)C1 [Example 63, (1′R,5′S)-8′-((4-(Difluoromethoxy)phenyl)sulfonyl)-1-(2-methoxy-2-methylpropyl)-8′-azaspiro[azetidine-3,3′-bicyclo[3.2.1]octane]]
< 100 nM	Cn1nc(C(F)(F)F)cc1S(=O)(=O)N1CC2(CCN(C3CCOCC3)C2)C1 [Example 55]

IC50	SMILES
250 to 4000 nM	COC(CN1CC2(C1)CN(S(=O)(=O)c1ccc(C(F)(F)F)nc1C)C2)C1CC1 (stereo not shown) [Example 178]
100 to 250 nM	CC1(O)CCC(N2CC3(C2)CN(S(=O)(=O)c2ccc(C(F)(F)F)nc2C2CC2)C3)CC1 (stereo not shown) [Example 196, 4-(6-((2-cyclopropyl-6-(trifluoromethyl)pyridin-3-yl)sulfonyl)-2,6-diazaspiro[3.3]heptan-2-yl)-1-methylcyclohexan-1-ol]
100 to 250 nM	Cc1ccc(S(=O)(=O)N2CC3(CN(C4CCOCC4)C3)C2)c(C(F)(F)F)n1 [Example 105, 2-((6-methyl-2-(trifluoromethyl)pyridin-3-yl)sulfonyl)-6-(tetrahydro-2H-pyran-4-yl)-2,6-diazaspiro[3.3]heptane]
250 to 4000 nM	O=S(=O)(c1ccc(OC(F)F)cc1)N1CCO[C@@]2(CCN([C@H]3CCCOC3)C2)C1 (racemic) [Example 8, (±)—(R)-9-((4-(Difluoromethoxy)phenyl)sulfonyl)-2-((S)-tetrahydro-2H-pyran-3-yl)-6-oxa-2,9-diazaspiro[4.5]decane]
100 to 250 nM	CC1(CN2CCC3(CC2)CN(S(=O)(=O)c2ccc(OC(F)F)cc2)CCO3)COC1 [Example 20, 4-((4-(Difluoromethoxy)phenyl)sulfonyl)-9-((3-methyloxetan-3-yl)methyl)-1-oxa-4,9-diazaspiro[5.5]undecane]
100 to 250 nM	O=S(=O)(c1ccc(OC(F)F)cc1)N1CCOC2(CCN(C3CCOCC3)C2)C1 (racemic) [Example 2, 9-((4-(Difluoromethoxy)phenyl)sulfonyl)-2-(tetrahydro-2H-pyran-4-yl)-6-oxa-2,9-diazaspiro[4.5]decane]
100 to 250 nM	O=S(=O)(c1ccc(C(F)(F)F)nc1C1CC1)N1CC2(CN(CC3COC3)C2)C1 [Example 209, 2-((2-cyclopropyl-6-(trifluoromethyl)pyridin-3-yl)sulfonyl)-6-(oxetan-3-ylmethyl)-2,6-diazaspiro[3.3]heptane]
100 to 250 nM	O=S(=O)(c1ccc(OC(F)F)cc1)N1CC2(CCN(C3CCOCC3)C2)C1 [Example 54]
250 to 4000 nM	O=S(=O)(c1ccc(C(F)(F)F)nc1C(F)(F)F)N1CC2(CN(C3CC4(COC4)C3)C2)C1 [Example 110]
100 to 250 nM	Cn1nc(C2CC2)cc1S(=O)(=O)N1CC2(CCN(C3CCOCC3)C2)C1 [Example 59]
250 to 4000 nM	O=S(=O)(c1ccc(OC(F)(F)F)cc1F)N1CC2(CN(C3CCOCC3)C2)C1 [Example 214, 2-((2-fluoro-4-(trifluoromethoxy)phenyl)sulfonyl)-6-(tetrahydro-2H-pyran-4-yl)-2,6-diazaspiro[3.3]heptane]
250 to 4000 nM	O=S(=O)(c1ccc(C(F)(F)F)nc1C(F)(F)F)N1CC2(CN(CC3COC3)C2)C1 [Example 112]
100 to 250 nM	Cc1nc(OC(F)F)ccc1S(=O)(=O)N1CC2(CN(C3CC4(COC4)C3)C2)C1 [Example 95, 2-((6-(difluoromethoxy)-2-methylpyridin-3-yl)sulfonyl)-6-(2-oxaspiro[3.3]heptan-6-yl)-2,6-diazaspiro[3.3]heptane]
250 to 4000 nM	O=S(=O)(c1cnc(Cl)c(C(F)(F)F)c1)N1CC2(CN(C3CCOCC3)C2)C1 [Example 165, 2-((6-chloro-5-(trifluoromethyl)pyridin-3-yl)sulfonyl)-6-(tetrahydro-2H-pyran-4-yl)-2,6-diazaspiro[3.3]heptane]
250 to 4000 nM	CCc1cc(C(F)(F)F)ncc1S(=O)(=O)N1CC2(CN(CC3CCOCC3)C2)C1 [Example 126, 2-((4-ethyl-6-(trifluoromethyl)pyridin-3-yl)sulfonyl)-6-((tetrahydro-2H-pyran-4-yl)methyl)-2,6-diazaspiro[3.3]heptane]
